# In article PMC6269967, “Evaluation of the Interaction between Long Telomeric DNA and Macrocyclic Hexaoxazole (6OTD) Dimer of a G-quadruplex Ligand” (Molecules, 2013):
# Where two headings read alike, the source gives them in different places.
# Assays:
# telomerase [1] = test: Telomerase repeat amplification protocol (TRAP) assay, cell-free, PC3 cell lysate; format: biochemical; settings: telomerase reaction 30 min, 20 °C, average of two independent experiments, read-out: telomerase inhibitory activity, IC50
# Protocol: Finally, we examined the telomerase inhibitory activities of the L2H2-6OTD monomer (2) and its dimer 3 in a cell-free system by telomerase repeat amplification protocol (TRAP) assay using PC3 cell lysate. Telomerase is known to elongate various lengths of telomere sequences, and the stabilization ability of each ligand can be evaluated with TRAP assay.
# Telomerase repeat amplification protocol (TRAP) assays were conducted as follows; 1 × 10^5 of PC3 cells were lysed with 200 μL of TRAP lysis buffer, placed on ice for 30 min, and centrifuged for 20 min (15,000 rpm, 4 °C). This TRAP lysate (2.0 μL) was mixed with 10×T-PCR buffer (5.0 μL), 2.5 mM dNTPs (1.0 μL), 50 ng/μL TS primer (5'-d[AATCCGTCGAGCAGAGTT]-3', 2.0 μL), 0.2 pM TSNT (5'-d[[…]]-3', 0.5 μL), DEPC (Diethylpyro carbonate) solution in MilliQ water (30 μL), compounds (DMSO solution, 5.0 μL), and placed on ice for 30 min. After the telomerase reactions (30 min, 20 °C), the reacting solution was placed on ice, 2.0 μL of 10 μM NT primer (5'-d[ATCGCTTCTCGGCCTTTT]-3’), 2.0 μL of […] (5'-d[GCGCGG (CTTACC)3CTAACC]-3') and 0.5 μL of Gene Taq (Nippon Gene, Tokyo, Japan) were added. The three-step PCR was performed: 27 cycles of 94 °C for 25 s, 50 °C for 25 s, and 72 °C for 45 s. […] IC50 value was calculated from average of two independent experiments.
# telo24 [2] = settings: telo24 (10 μM), ligand 4 eq.; CD at 295 nm, 50 mM Tris–HCl pH 7.5, 100 mM KCl; 1.0 °C/min; ligand-free Tm 59; ref [53]; cited from earlier work
# From the text: (§1) Table 1 Tm values (°C) of telomeric DNAs in the absence or presence of G4 ligands 2 and 3 ^a,b,c. | column: Tm
# telo48 = settings: CD at 295 nm, 50 mM Tris–HCl pH 7.5, 100 mM KCl, ref [53], cited from earlier work
# From the text: as §1
# [3] = tested on: long telomeric DNAs telo48, 72, and 96; settings: ref [53]; cited from earlier work
# From the text: (§2) For evaluations of interaction and stabilization of telomeric DNA with G4 ligands, telo24 DNA, i.e., four sets of (TTAGGG) repeats consisting of 24 bases in total, has been usually used as a telomeric DNA model, because it is a minimum length able to form one unit of G4 structure.
# telo24 [4] = settings: earlier work of the authors, reference not given; cited from earlier work
# From the text: as §2
# telomerase [5] = settings: TRAP assay; ref [17],[18],[19],[20],[21],[22]; read-out: telomerase inhibitory activity, IC50; cited from earlier work
# From the text: At the end of chromosomes, there exists a characteristic region called the telomere. The telomere is composed of double-stranded tandem repeats of (TTAGGG/AATCCC)n sequence amounting to 2–30 kb, to which telomere binding proteins are bound. These sequences are shortened at each cell division, ultimately inducing cell senescence. At the extreme end of these duplex repeats there is a single-stranded 3' overhang, termed the 3' G-tail, consisting of ca. 50−250 nucleotides in total. The G-tail sequence is considered to form G-quadruplexes (G4s), one of the higher-order structures ...
SMILES,IC50 (telomerase [1]) [nM],Tm (telo24 [2]) [°C],"Tm (telo48; DNA printed telo48 (fourth group), ligand 16 eq., ligand-free Tm 55) [°C]","Tm (telo48; DNA printed telo48 (third group), ligand 12 eq., ligand-free Tm 55) [°C]","Tm (telo48; telo48, ligand 8 eq., 1.0 °C/min, ligand-free Tm 57) [°C]",interaction mode [3],interaction mode (telo24 [4]),IC50 (telomerase [5]) [nM]
NCCCC[C@@H]1NC(=O)c2coc(n2)-c2coc(n2)-c2coc(n2)[C@H](CCCCN)NC(=O)c2coc(n2)-c2coc(n2)-c2coc1n2 [compound 2],15,75,70,73,76,"each telo24 unit in the long telomeric DNAs interacted with two molecules of L2H2-6OTD (2) in an end-stacking mode, and were induced to take anti-parallel-type topology",strongly interacts with telo24 to form anti-parallel-type G4 structure in an end-stacking mode with two molecules of 2,
Cc1oc2nc1-c1nc(co1)-c1nc(co1)-c1nc(co1)-c1nc(co1)-c1nc(co1)C1=NC(CS1)c1nc-2c(C)o1 (centres unmarked) [telomestatin],,,,,,,,5
